Patent US7851474B2, “Dipiperazinyl ketones and related analogues” (Neurogen Corporation, priority 2005, dated 2010)

The molecules below were run against T1, chimeric human H3 receptor (Homo sapiens, UniProt Q9Y5N1, E19D) (assay: Chimeric human H3 receptor GTP binding assay (agonist-stimulated GTP-gamma35S binding, Example 7)). Details: not given.
T1 construct: made in house; host or cells: Sf9 insect cells (baculovirus infection); P2 membrane preparation
Assay type: biochemical
Outline: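 Sf9 membranes co-expressing the chimeric receptor and heterotrimeric G-protein subunits, 35 μg protein per tube, in pH 7.4 Tris buffer with 10 μM GDP. Test compounds at 10^−10 to 10^−6 M with 1 μM histamine, 60 min at room temperature. Filter-bound GTP-gamma^35S read by scintillation; IC50 from non-linear regression of dose-response curves.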

T1 sequence (Q9Y5N1 with tags, fused parts or gaps E19D): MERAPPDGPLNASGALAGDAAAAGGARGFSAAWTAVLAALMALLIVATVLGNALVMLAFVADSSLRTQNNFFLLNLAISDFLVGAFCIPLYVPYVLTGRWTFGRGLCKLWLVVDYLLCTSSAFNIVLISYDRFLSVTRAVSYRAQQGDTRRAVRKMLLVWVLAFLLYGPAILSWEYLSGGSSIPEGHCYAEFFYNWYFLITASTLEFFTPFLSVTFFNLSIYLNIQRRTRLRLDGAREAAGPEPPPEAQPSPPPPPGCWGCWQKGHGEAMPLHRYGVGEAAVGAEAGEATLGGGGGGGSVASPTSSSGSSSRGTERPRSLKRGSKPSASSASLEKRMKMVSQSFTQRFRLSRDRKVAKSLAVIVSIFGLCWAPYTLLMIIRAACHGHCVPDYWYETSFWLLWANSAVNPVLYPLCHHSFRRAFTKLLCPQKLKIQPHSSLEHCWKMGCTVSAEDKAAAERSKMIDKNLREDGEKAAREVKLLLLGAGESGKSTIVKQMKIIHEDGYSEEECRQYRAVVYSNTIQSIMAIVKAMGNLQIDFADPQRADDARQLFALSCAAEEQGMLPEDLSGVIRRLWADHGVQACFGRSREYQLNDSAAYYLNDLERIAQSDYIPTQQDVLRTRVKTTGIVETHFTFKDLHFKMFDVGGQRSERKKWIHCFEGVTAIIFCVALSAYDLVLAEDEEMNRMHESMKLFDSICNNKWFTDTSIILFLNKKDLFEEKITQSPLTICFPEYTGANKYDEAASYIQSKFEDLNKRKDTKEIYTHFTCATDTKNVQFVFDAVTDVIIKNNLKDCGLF

| Compound | Ki [nM] |
| --- | --- |
| O=C(CN1CCN(c2cccc(C(F)(F)F)c2)CC1)N1CCN(C2CCCC2)CC1 [Compound 827, 1-cyclopentyl-4-({4-[3-(trifluoromethyl)phenyl]piperazin-1-yl}acetyl)piperazine] | < 1000 |
| O=C(CN1CCN(c2ccc(F)c(C(F)(F)F)c2)CC1)N1CCN(C2CCCC2)CC1 [Compound 830, 1-cyclopentyl-4-({4-[4-fluoro-3-(trifluoromethyl)phenyl]piperazin-1-yl}acetyl)piperazine] | < 1000 |
| CCN1CCN(C(=O)CN2CCN(c3ccc(C(F)(F)F)cc3)CC2)CC1 [Compound 842, 1-ethyl-4-({4-[4-(trifluoromethyl)phenyl]piperazin-1-yl}acetyl)piperazine] | < 1000 |
| CCN1CCN(C(=O)CN2CCN(c3ccc(OC)cc3)CC2)CC1 [Compound 843, 1-ethyl-4-{[4-(4-methoxyphenyl)piperazin-1-yl]acetyl}piperazine] | < 1000 |
| CC(C)N1CCN(C(=O)CN2CCN(c3ccccc3)CC2)CC1 [Compound 847, 1-isopropyl-4-[(4-phenylpiperazin-1-yl)acetyl]piperazine] | < 1000 |

Same assay, conditions: Table II "Ki", symbol "*": Ki in the assay of Example 7; read-out: Ki

| Compound | Ki [nM] |
| --- | --- |
| O=C(CN1CCN(c2ccc(F)c(C(F)(F)F)c2)CC1)N1CCN(C2CCCCC2)CC1 [Compound 804, 1-cyclohexyl-4-({4-[4-fluoro-3-(trifluoromethyl)phenyl]piperazin-1-yl}acetyl)piperazine] | < 1000 |
| O=C(CN1CCN(c2ccccc2)CC1)N1CCN(C2CCCCC2)CC1 [Compound 805, 1-cyclohexyl-4-[(4-phenylpiperazin-1-yl)acetyl]piperazine] | < 1000 |
| O=C(CN1CCC(N2CCCC2)CC1)N1CCN(C2CCCCC2)CC1 [Compound 806, 1-cyclohexyl-4-[(4-pyrrolidin-1-ylpiperidin-1-yl)acetyl]piperazine] | < 1000 |
| O=C(CN1CCN(c2ccc(Cl)c(Cl)c2)CC1)N1CCN(C2CCCCC2)CC1 [Compound 815, 1-cyclohexyl-4-{[4-(3,4-dichlorophenyl)piperazin-1-yl]acetyl}piperazine] | < 1000 |
| COc1ccc(N2CCN(CC(=O)N3CCN(C4CCCCC4)CC3)CC2)cc1OC [Compound 816, 1-cyclohexyl-4-{[4-(3,4-dimethoxyphenyl)piperazin-1-yl]acetyl}piperazine] | < 1000 |
| Cc1ccc(N2CCN(CC(=O)N3CCN(C4CCCCC4)CC3)CC2)cc1C [Compound 817, 1-cyclohexyl-4-{[4-(3,4-dimethylphenyl)piperazin-1-yl]acetyl}piperazine] | < 1000 |
| O=C(CN1CCN(c2cccc(F)c2)CC1)N1CCN(C2CCCCC2)CC1 [Compound 819, 1-cyclohexyl-4-{[4-(3-fluorophenyl)piperazin-1-yl]acetyl}piperazine] | < 1000 |
| COc1cccc(N2CCN(CC(=O)N3CCN(C4CCCCC4)CC3)CC2)c1 [Compound 820, 1-cyclohexyl-4-{[4-(3-methoxyphenyl)piperazin-1-yl]acetyl}piperazine] | < 1000 |
| Cc1cccc(N2CCN(CC(=O)N3CCN(C4CCCCC4)CC3)CC2)c1 [Compound 821, 1-cyclohexyl-4-{[4-(3-methylphenyl)piperazin-1-yl]acetyl}piperazine] | < 1000 |
| O=C(CN1CCN(c2ccc(F)cc2)CC1)N1CCN(C2CCCCC2)CC1 [Compound 822, 1-cyclohexyl-4-{[4-(4-fluorophenyl)piperazin-1-yl]acetyl}piperazine] | < 1000 |
| COc1ccc(N2CCN(CC(=O)N3CCN(C4CCCCC4)CC3)CC2)cc1 [Compound 823, 1-cyclohexyl-4-{[4-(4-methoxyphenyl)piperazin-1-yl]acetyl}piperazine] | < 1000 |
| Cc1ccc(N2CCN(CC(=O)N3CCN(C4CCCCC4)CC3)CC2)cc1 [Compound 824, 1-cyclohexyl-4-{[4-(4-methylphenyl)piperazin-1-yl]acetyl}piperazine] | < 1000 |
| O=C(CN1CCN(c2ccc([N+](=O)[O-])cc2)CC1)N1CCN(C2CCCCC2)CC1 [Compound 825, 1-cyclohexyl-4-{[4-(4-nitrophenyl)piperazin-1-yl]acetyl}piperazine] | < 1000 |
| O=C(CN1CCN(C(=O)C2CCCO2)CC1)N1CCN(C2CCCCC2)CC1 (stereo not shown) [Compound 826, 1-cyclohexyl-4-{[4-(tetrahydrofuran-2-ylcarbonyl)piperazin-1-yl]acetyl}piperazine] | < 1000 |
| CS(=O)(=O)c1ccc(N2CCN(CC(=O)N3CCN(C4CCCC4)CC3)CC2)cc1 [Compound 828, 1-cyclopentyl-4-({4-[4-(methylsulfonyl)phenyl]piperazin-1-yl}acetyl)piperazine] | < 1000 |
| O=C(CN1CCN(c2ccc(C(F)(F)F)cc2)CC1)N1CCN(C2CCCC2)CC1 [Compound 829, 1-cyclopentyl-4-({4-[4-(trifluoromethyl)phenyl]-1-piperazinyl}acetyl) piperazine] | < 1000 |
| O=C(CN1CCN(c2cccc(Cl)c2Cl)CC1)N1CCN(C2CCCC2)CC1 [Compound 831, 1-cyclopentyl-4-{[4-(2,3-dichlorophenyl)piperazin-1-yl]acetyl}piperazine] | < 1000 |
| Cc1ccc(N2CCN(CC(=O)N3CCN(C4CCCC4)CC3)CC2)c(C)c1 [Compound 834, 1-cyclopentyl-4-{[4-(2,4-dimethylphenyl)piperazin-1-yl]acetyl}piperazine] | < 1000 |
| Cc1cccc(C)c1N1CCN(CC(=O)N2CCN(C3CCCC3)CC2)CC1 [Compound 835, 1-cyclopentyl-4-{[4-(2,6-dimethylphenyl)piperazin-1-yl]acetyl}piperazine] | < 1000 |

| Compound | Ki [nM] |
| --- | --- |
| COc1ccc(N2CCN(CC(=O)N3CCN(C4CCCC4)CC3)CC2)cc1OC [Compound 836, 1-cyclopentyl-4-{[4-(3,4-dimethoxyphenyl)piperazin-1-yl]acetyl}piperazine] | < 1000 |
| Cc1ccc(N2CCN(CC(=O)N3CCN(C4CCCC4)CC3)CC2)cc1C [Compound 837, 1-cyclopentyl-4-{[4-(3,4-dimethylphenyl)piperazin-1-yl]acetyl}piperazine] | < 1000 |
| O=C(CN1CCN(c2cc(Cl)cc(Cl)c2)CC1)N1CCN(C2CCCC2)CC1 [Compound 838, 1-cyclopentyl-4-{[4-(3,5-dichlorophenyl)piperazin-1-yl]acetyl}piperazine] | < 1000 |
| COc1ccc(N2CCN(CC(=O)N3CCN(C4CCCC4)CC3)CC2)cc1 [Compound 839, 1-cyclopentyl-4-{[4-(4-methoxyphenyl)piperazin-1-yl]acetyl}piperazine] | < 1000 |
| O=C(CN1CCN(c2ccc([N+](=O)[O-])cc2)CC1)N1CCN(C2CCCC2)CC1 [Compound 840, 1-cyclopentyl-4-{[4-(4-nitrophenyl)piperazin-1-yl]acetyl}piperazine] | < 1000 |
| O=C(CN1CCN(C(=O)C2CCCO2)CC1)N1CCN(C2CCCC2)CC1 (stereo not shown) [Compound 841, 1-cyclopentyl-4-{[4-(tetrahydrofuran-2-ylcarbonyl)piperazin-1-yl]acetyl}piperazine] | < 1000 |
| CC(C)N1CCN(C(=O)CN2CCN(c3ccc(C(F)(F)F)cc3)CC2)CC1 [Compound 845, 1-isopropyl-4-({4-[4-(trifluoromethyl)phenyl]piperazin-1-yl}acetyl)piperazine] | < 1000 |
| CC(C)N1CCN(C(=O)CN2CCN(c3ccc(C(F)(F)F)cn3)CC2)CC1 [Compound 846, 1-isopropyl-4-({4-[5-(trifluoromethyl)pyridin-2-yl]piperazin-1-yl}acetyl)piperazine] | < 1000 |
| Cc1ccc(N2CCN(CC(=O)N3CCN(C(C)C)CC3)CC2)cc1 [Compound 850, 1-isopropyl-4-{[4-(4-methylphenyl)piperazin-1-yl]acetyl}piperazine] | < 1000 |
| CC(C)N1CCN(C(=O)CN2CCN(c3ccc([N+](=O)[O-])cc3)CC2)CC1 [Compound 851, 1-isopropyl-4-{[4-(4-nitrophenyl)piperazin-1-yl]acetyl}piperazine] | < 1000 |
| CC(C)N1CCN(C(=O)CN2CCN(C(=O)C3CCCO3)CC2)CC1 (stereo not shown) [Compound 852, 1-isopropyl-4-{[4-(tetrahydrofuran-2-ylcarbonyl)piperazin-1-yl]acetyl}piperazine] | < 1000 |
| CCC(C)N1CCN(C(=O)CN2CCN(c3cccc(C(F)(F)F)c3)CC2)CC1 (stereo not shown) [Compound 853, 1-sec-butyl-4-({4-[3-(trifluoromethyl)phenyl]piperazin-1-yl}acetyl)piperazine] | < 1000 |
| CCC(C)N1CCN(C(=O)CN2CCN(c3ccc(C(F)(F)F)cc3)CC2)CC1 (stereo not shown) [Compound 854, 1-sec-butyl-4-({4-[4-(trifluoromethyl)phenyl]piperazin-1-yl}acetyl)piperazine] | < 1000 |
| CCC(C)N1CCN(C(=O)CN2CCN(c3ccc(Cl)c(C(F)(F)F)c3)CC2)CC1 (stereo not shown) [Compound 855, 1-sec-butyl-4-({4-[4-chloro-3-(trifluoromethyl)phenyl]piperazin-1-yl}acetyl)piperazine] | < 1000 |
| CCC(C)N1CCN(C(=O)CN2CCN(c3ccc(F)c(C(F)(F)F)c3)CC2)CC1 (stereo not shown) [Compound 856, 1-sec-butyl-4-({4-[4-fluoro-3-(trifluoromethyl)phenyl]piperazin-1-yl}acetyl)piperazine] | < 1000 |
| CCC(C)N1CCN(C(=O)CN2CCN(c3ccccc3)CC2)CC1 (stereo not shown) [Compound 857, 1-sec-butyl-4-[(4-phenylpiperazin-1-yl)acetyl]piperazine] | < 1000 |
| CCC(C)N1CCN(C(=O)CN2CCC(N3CCCC3)CC2)CC1 (stereo not shown) [Compound 858, 1-sec-butyl-4-[(4-pyrrolidin-1-ylpiperidin-1-yl)acetyl]piperazine] | < 1000 |
| CCC(C)N1CCN(C(=O)CN2CCN(c3cccc(Cl)c3Cl)CC2)CC1 (stereo not shown) [Compound 859, 1-sec-butyl-4-{[4-(2,3-dichlorophenyl)piperazin-1-yl]acetyl}piperazine] | < 1000 |
| CCC(C)N1CCN(C(=O)CN2CCN(c3cccc(C)c3C)CC2)CC1 (stereo not shown) [Compound 860, 1-sec-butyl-4-{[4-(2,3-dimethylphenyl)piperazin-1-yl]acetyl}piperazine] | < 1000 |
